Test results from patent US10179141B2, “Certain chemical entities, compositions, and methods” (Suzhou NeuPharma Co., Ltd., priority 2010, dated 2019).
Values after ≈ are worked out from the molar mass of the structure shown.

Experiments:
[1] = test system: A549 cells; assay: Inhibition of cell growth in tumor cells, MTT assay, A549; format: cell-based; details: Homo sapiens, 72 h compound exposure
Description: (§1) Inhibition of cell growth by compounds was measured using MTT assay (Mosmann, T., Journal of Immunological Methods, 1983, 65, 55-63). Tumor cell lines were purchased from ATCC (American Type Culture Collection, Manassas, Va.). All cell lines were maintained in RPMI 1640 (Hyclone) supplemented with 10% fetal bovine serum (FBS, Hyclone), glutamine (2 mM, Hyclone), and antibiotics (penicillin 100 U/mL and streptomycin 50 μg/mL) at 37° C. in a humidified atmosphere of 5% CO2 in air. Taxol (positive control, Sigma) and compounds were dissolved in DMSO (Sigma), and the final concentration of DMSO in the medium was 1%. Tumor cells were plated in 96-well plates at densities from 4000 cells/well of a 96-well plate and allowed to adhere/grow for 24 h. They were then treated with various concentrations of drug for 72 h. 3-(4,5-Dimethylthiazol-2-yl)-2,5-diphenyltetrazolium bromide (MTT, Sigma) was used to determine the number of viable cells at the time of compound addition and the number of cells remaining after 72 h compound exposure. The number of cells remaining after 72 h was compared to the number of viable cells at the time of compound addition by measuring the absorbance at 570 nm, allowing for the calculation of growth inhibition.
(§2) All concentrations of compounds were tested in triplicate and controls were averaged over 4 wells. IC50 was calculated by plotting the concentration of compound vs the percentage of inhibition in treated wells using GraphPad Prism 5.

[2] = Measurement of equilibrium solubility in aqueous buffer (HPLC UV); format: physicochemical; details: aqueous NaOAc/AcOH buffer, thermodynamic from solid, NaOAc/AcOH buffer (100 mM, pH 5.0), shaken at rt for 24 h
Description: The equilibrium solubility of compounds is measured in aqueous buffer. Excess amount of solid compound is added into buffer solution and the sample is briefly sonicated and then shaken at rt for 24 h. The sample is filtered and the concentration is analyzed by HPLC UV. A standard solution at 0.2 mg/mL was prepared in methanol or acetonitrile for each compound and used as an external standard for quantification. Data for bufalin and four of the compounds specifically described herein in NaOAc/AcOH buffer (100 mM, pH 5.0) is shown below.

[3] = test system: Bcap-37 cells; assay: Inhibition of cell growth in tumor cells, MTT assay, Bcap-37; format: cell-based; details: Homo sapiens, Bcap37, 72 h compound exposure
Description: as §1, §2

[4] = test system: tumor xenografts; assay: Inhibition of tumor growth in xenograft model; format: in vivo, BALB/c female nude mice; details: 10 mg/kg, Q4D × 3, i.v.
Description: Cells were implanted in BALB/c female nude mice and grown as tumor xenografts. When tumors achieved 150-200 mm^3, mice were assigned into treatment and control groups using randomized block design based upon their tumor volumes. Each group contained 10 tumor-bearing mice. Tumors were measured twice weekly in two dimensions using a caliper, and the tumor volume was calculated from two-dimensional measurements using the equation V=0.5×a×b^2 where a and b are the long and short diameters of the tumor, respectively. The tumor volume was then used for calculations of T/C values. The T/C value was an indication of antitumor effectiveness; T and C were the mean volume of the treated and control groups, respectively, on a given day.

Compound	IC50 [1]	solubility at 24 h [2]	IC50 [3]	further results
C[C@]12CC[C@H](OC(=O)NCCCC(=O)O)C[C@H]1CC[C@@H]1[C@@H]2CC[C@]2(C)[C@@H](c3ccc(=O)oc3)CC[C@]12O [4-(((((3S,5R,8R,9S,10S,13R,14S,17R)-14-hydroxy-10,13-dimethyl-17-(2-oxo-2H-pyran-5-yl)hexadecahydro-1H-cyclopenta[a]phenanthren-3-yl)oxy)carbonyl)amino)butanoic Acid]	0.06 µM	–	–	–
C[C@]12CC[C@H](OC(=O)OCCN3CCCC3)C[C@H]1CC[C@@H]1[C@@H]2CC[C@]2(C)[C@@H](c3ccc(=O)oc3)CC[C@]12O [(3S,5R,8R,9S,10S,13R,14S,17R)-14-hydroxy-10,13-dimethyl-17-(2-oxo-2H-pyran-5-yl)hexadecahydro-1H-cyclopenta[a]phenanthren-3-yl (2-(pyrrolidin-1-yl)ethyl) carbonate]	–	0.71 mg/mL (≈ 1350 µM)	0.0106 µM	–
C[C@]12CC[C@H](OC(=O)NCCN3CCCC3)C[C@H]1CC[C@@H]1[C@@H]2CC[C@]2(C)[C@@H](c3ccc(=O)oc3)CC[C@]12O [(3S,5R,8R,9S,10S,13R,14S,17R)-14-hydroxy-10,13-dimethyl-17-(2-oxo-2H-pyran-5-yl)hexadecahydro-1H-cyclopenta[a]phenanthren-3-yl (2-(pyrrolidin-1-yl)ethyl)carbamate]	0.0028 µM	1.04 mg/mL (≈ 1970 µM)	0.0053 µM	–
C[C@]12CC[C@H](OC(=O)OCCN3CCOCC3)C[C@H]1CC[C@@H]1[C@@H]2CC[C@]2(C)[C@@H](c3ccc(=O)oc3)CC[C@]12O [(3S,5R,8R,9S,10S,13R,14S,17R)-14-hydroxy-10,13-dimethyl-17-(2-oxo-2H-pyran-5-yl)hexadecahydro-1H-cyclopenta[a]phenanthren-3-yl (2-morpholinoethyl) carbonate]	0.0122 µM	–	–	–
C[C@]12CC[C@H](OC(=O)NCCN3CCOCC3)C[C@H]1CC[C@@H]1[C@@H]2CC[C@]2(C)[C@@H](c3ccc(=O)oc3)CC[C@]12O [(3S,5R,8R,9S,10S,13R,14S,17R)-14-hydroxy-10,13-dimethyl-17-(2-oxo-2H-pyran-5-yl)hexadecahydro-1H-cyclopenta[a]phenanthren-3-yl (2-morpholinoethyl)carbamate]	0.0074 µM	–	–	–
C[C@]12CC[C@H](OC(=O)N3CCOCC3)C[C@H]1CC[C@@H]1[C@@H]2CC[C@]2(C)[C@@H](c3ccc(=O)oc3)CC[C@]12O [(3S,5R,8R,9S,10S,13R,14S,17R)-14-hydroxy-10,13-dimethyl-17-(2-oxo-2H-pyran-5-yl)hexadecahydro-1H-cyclopenta[a]phenanthren-3-yl morpholine-4-carboxylate]	–	–	0.223 µM	–
C[C@]12CC[C@H](OC(=O)N3CCNCC3)C[C@H]1CC[C@@H]1[C@@H]2CC[C@]2(C)[C@@H](c3ccc(=O)oc3)CC[C@]12O [(3S,5R,8R,9S,10S,13R,14S,17R)-14-hydroxy-10,13-dimethyl-17-(2-oxo-2H-pyran-5-yl)hexadecahydro-1H-cyclopenta[a]phenanthren-3-yl piperazine-1-carboxylate]	0.0018 µM	0.84 mg/mL (≈ 1680 µM)	–	–
CC(C)[C@@H](N)C(=O)O[C@H]1CC[C@@]2(C)[C@H](CC[C@@H]3[C@@H]2CC[C@]2(C)[C@@H](c4ccc(=O)oc4)CC[C@]32O)C1 [(R)-(3S,5R,8R,9S,10S,13R,14S,17R)-14-hydroxy-10,13-dimethyl-17-(2-oxo-2H-pyran-5-yl)hexadecahydro-1H-cyclopenta[a]phenanthren-3-yl 2-amino-3-methylbutanoate]	0.147 µM	–	–	–
CC(C)C[C@@H](N)C(=O)O[C@H]1CC[C@@]2(C)[C@H](CC[C@@H]3[C@@H]2CC[C@]2(C)[C@@H](c4ccc(=O)oc4)CC[C@]32O)C1 [(R)-(3S,5R,8R,9S,10S,13R,14S,17R)-14-hydroxy-10,13-dimethyl-17-(2-oxo-2H-pyran-5-yl)hexadecahydro-1H-cyclopenta[a]phenanthren-3-yl 2-amino-4-methylpentanoate]	0.0588 µM	–	–	–
C[C@@H](N)C(=O)O[C@H]1CC[C@@]2(C)[C@H](CC[C@@H]3[C@@H]2CC[C@]2(C)[C@@H](c4ccc(=O)oc4)CC[C@]32O)C1 [(R)-(3S,5R,8R,9S,10S,13R,14S,17R)-14-hydroxy-10,13-dimethyl-17-(2-oxo-2H-pyran-5-yl)hexadecahydro-1H-cyclopenta[a]phenanthren-3-yl 2-aminopropanoate]	0.0034 µM	–	–	–
CC(C)[C@H](N)C(=O)O[C@H]1CC[C@@]2(C)[C@H](CC[C@@H]3[C@@H]2CC[C@]2(C)[C@@H](c4ccc(=O)oc4)CC[C@]32O)C1 [(S)-(3S,5R,8R,9S,10S,13R,14S,17R)-14-hydroxy-10,13-dimethyl-17-(2-oxo-2H-pyran-5-yl)hexadecahydro-1H-cyclopenta[a]phenanthren-3-yl 2-amino-3-methylbutanoate]	–	0.12 mg/mL (≈ 247 µM)	0.0489 µM	–
CC(C)C[C@H](N)C(=O)O[C@H]1CC[C@@]2(C)[C@H](CC[C@@H]3[C@@H]2CC[C@]2(C)[C@@H](c4ccc(=O)oc4)CC[C@]32O)C1 [(S)-(3S,5R,8R,9S,10S,13R,14S,17R)-14-hydroxy-10,13-dimethyl-17-(2-oxo-2H-pyran-5-yl)hexadecahydro-1H-cyclopenta[a]phenanthren-3-yl 2-amino-4-methylpentanoate]	0.0151 µM	–	–	–
C[C@H](N)C(=O)O[C@H]1CC[C@@]2(C)[C@H](CC[C@@H]3[C@@H]2CC[C@]2(C)[C@@H](c4ccc(=O)oc4)CC[C@]32O)C1 [(S)-(3S,5R,8R,9S,10S,13R,14S,17R)-14-hydroxy-10,13-dimethyl-17-(2-oxo-2H-pyran-5-yl)hexadecahydro-1H-cyclopenta[a]phenanthren-3-yl 2-aminopropanoate]	–	–	0.0159 µM	–
C[C@]12CCC(O)C[C@H]1CC[C@@H]1[C@@H]2CC[C@]2(C)[C@@H](c3ccc(=O)oc3)CC[C@]12O (some centres unmarked) [Bufalin, reference compound]	0.0044 µM	0.041 mg/mL (≈ 106 µM)	0.014 µM	–
CC(=O)O[C@H]1C(=O)[C@@]2(C)[C@H]([C@H](OC(=O)c3ccccc3)[C@]3(O)C[C@H](OC(=O)[C@H](O)[C@@H](NC(=O)c4ccccc4)c4ccccc4)C(C)=C1C3(C)C)[C@]1(OC(C)=O)CO[C@@H]1C[C@@H]2O [Paclitaxel]	–	–	–	T/C ([4]; mean tumor volume treated/control): 74.6%; Tumor Volume Post-treatment ([4]; nude mouse xenograft): 391 ± 43 mm^3
